In patent US7671058B2, “N-(3,4-disubstituted phenyl) salicylamide derivatives” (Institute of Medicinal Molecular Design, Inc., priority 2006, dated 2010):
Like-named read-outs stand apart in the source and are kept apart here.

How the values were obtained:
[1] = test system: STAT6; test: STAT6 inhibition test: (GLS)x8/pTA-Luc luciferase reporter in U2-OS cells stimulated with human IL-4; assay type: cell-based; settings: human IL-4 40 ng/mL; for IC50: from inhibition rates at 1, 0.1, 0.01 and 0.001 μM, read-out: IC50 against activation of STAT6
From the text: (1) Construction of a STAT6 Reporter Plasmid
The Oligonucleotides (SEQ ID: 1, 2) containing two copies of STAT6 binding sequences (refer to J. Biol. Chem., vol. 276, No. 9, pp. 6675-6688 (2001).) were synthesized, and integrated into the enhancer region of the reporter plasmid pTA-Luc Vector (CLONTECH Laboratories, Inc.) at the restriction enzyme BgIII site.
When the oligonucleotide is integrated in positive direction into the plasmid, the upstream BglII site is not reconstructed. Therefore, STAT6 binding sequences can be increased by repeating integration of the oligonucleotide at the restriction enzyme BglII site.
In the present test, a plasmid including eight integrated STAT6 binding sequences was constructed and provided for the reporter assay as (GLS)x8/pTA-Luc. Confirmation of the sequences was carried out using an automated fluorescence sequencer (Model 310 (Applied Biosystems)).
(2) Transfection into U2-OS Cells and Inhibition Test for STAT6 Activation
U2-OS cells were seeded to at 2×10^4 cells/well in 96-well culture plates, and transfection was carried out using FuGENE 6 Transfection Reagent (Roche Diagnostics GmbH). The procedures of the transfection are shown below.
11 μg of reporter plasmid ((GLS)x8/pTA-Luc) and 1.1 μg of pCMV β (CLONTECH Laboratories, Inc.) were mixed in 1.1 mL of OPTI-MEM I medium (GIBCO BRL) (solution (A)).
33 μL of FuGENE 6 Transfection Reagent was mixed in 1.1 mL of OPTI-MEM I medium (solution (B)).
(§1) The above solution (A) and solution (B) were mixed, let them stand for 15 minutes at room temperature, then, 8.8 mL of OPTI-MEM I medium was added and diluted.
To this transfection solution, U2-OS cell suspension (11 mL) in McCoy's 5A medium (GIBCO BRL) containing 10% Fetal Bovine Serum (FBS; GIBCO BRL) at 2×10^5 cells/mL was added and well mixed.
(§2) 0.2 mL of the above solution was dispensed into each well of 96-well culture plates, and incubated for 24 hours (37° C., 5% CO2).
After removal of 50 μL of medium from each well, 50 μL of McCoy's 5A medium (serum-free) containing compound, of the present application was added to a final concentration of 0.01˜2 μM (0.001, 0.01, 0.1, 0.5, 1 or 2 μM), and the plates were incubated for 2 hours (37° C., 5% CO2).
10 μL of the McCoy's 5A medium (serum-free) containing human IL-4 (R&D Systems, Inc) was added to each well to achieve a final concentration of 40 ng/mL, and incubated for 8 hours (37° C., 5% CO2).
(§3) Medium was completely removed and plates were preserved at −80° C. until measurements.
(§4) Cell lysates were prepared by adding 40 μL of Passive Lysis Buffer (Promega Corporation) to each well.
(§5) 10 μL of each lysate was transferred to 96-well white plates. 50 μL of PicaGene L.T.2.0 (TOYO INK MFG. CO., LTD.) was added to each well, then, luminescence was measured after leaving for 10 minutes at room temperature.
(§6) 10 μL of each lysate was transferred to 96-well black plates. 100 μL of Z Buffer (preparation method will be explained later) was added to each well, and fluorescence was measured immediately.
(§7) 10 μL of each lysate was transferred to 96-well clear plates. 200 μL of protein assay reagent prepared from the BCA Protein Assay Kit (Pierce Biotechnology, Inc.) was added to each well, and, absorbance was measured after incubation for 30 minutes at 37° C.
(§8) For measurements of luminescence, fluorescence, and absorbance, microplate reader GENios (TECAN G.M.B.H.) was used.
(4) Calculation of Inhibition Rate
Luminescence values that show the degree of activation by IL-4 stimulation were normalized by β-gal values that show transfection efficiency. Using the normalized values, the following calculations were carried out using the luminescence values increased by IL-4 stimulation. Inhibition Rate(%)=[…] E: In the presence of the compound of the present application, increased luminescence value by IL-4 stimulation C: Without the presence of the compound of the present application, increased luminescence value by IL-4 stimulation […]

[2] = test system: NF-κB; test: NF-κB inhibition test: pNFκB-Luc luciferase reporter in U2-OS cells stimulated with human TNF α; assay type: cell-based; settings: human TNF α 10 ng/mL; for IC50: from inhibition rates at 1, 0.1, 0.01 and 0.001 μM, read-out: IC50 against activation of NF-κB
Method: (1) Transfection to U2-OS Cells and Inhibition Test of Activation
U2-OS cells were seeded at 2×10^4 cells/well in 96-well culture plate, and transfection was carried out using FuGENE 6 Transfection Reagent (Roche Diagnostics GmbH). The procedures of the transfection are shown below.
11 μg of reporter plasmid (pNFκB-Luc; Stratagene Corporation) and 1.1 μg of pCMV β (CLONTECH Laboratories, Inc.) were mixed in 1.1 mL of OPTI-MEM I medium (GIBCO BRL) (solution (A)).
[…] of FuGENE 6 Transfection Reagent was mixed in 1.1 mL of OPTI-MEM I medium (solution (B)).
as §1
To this transfection solution, U2-OS cell suspension (11 mL) in McCoy's 5A medium (GIBCO BRL) containing 10% Fetal Bovine Serum (FBS; GIBCO BRL) at […] was added and well mixed.
as §2
After removal of 50 μL of medium from each well, 50 μL of McCoy's 5A medium (serum-free) containing compound of the present application was added to a final concentration of 0.01˜2 μM (0.001, 0.01, 0.1, 0.5, 1 or 2 μM), and the plates were incubated for 2 hours (37° C., 5% CO2).
10 μL of the McCoy's 5A medium (serum-free) containing human TNF α (PEPROTECH EC Ltd.) was added to each well to achieve a final concentration of 10 ng/mL, and incubated for 8 hours (37° C., 5% CO2).
as §3, §4, §5, §6, §7, §8
(3) Calculation of Inhibition Rate
Luminescence values that show the degree of activation by TNF α stimulation were normalized by β-gal values that show transfection efficiency. Using the normalized values, the following calculation was carried out using the luminescence values that increased by TNF α stimulation. Inhibition Rate(%)=[…] E: In the presence of the compound of the present application, increased luminescence values by TNF α stimulation C: Without the presence of the compound of the present application, increased luminescence values by TNF α, stimulation
The values of protein assay by BCA reagent were used for a simple assessment of cytotoxicity, and not used for the calculation of inhibition rates.
NF-κB Inhibition Rates are shown below. The values in parentheses in the table represent the concentration of the compound of the present application.
NF-κB inhibition rates where the concentrations of the compound of the present application were 1, 0.1, 0.01 and 0.001 μM were calculated, and the 50% inhibitory concentrations (IC50) of the compounds of the present application against activation of NF-κB were evaluated.

Row | Structure (SMILES) | Inhibition Rate of STAT6 (%) ([1]; compound 2 μM, 8 hours) | Inhibition Rate of NF-κB (%) ([2]; compound 2 μM, 8 hours) | other results
1 | O=C(Nc1ccc(C2CCNCC2)c(F)c1)c1cc(Cl)ccc1O [Compound 41] | – | – | inhibition at 2 µM ([1]; U2OS, compound 2 μM, 8 hours, read-out: Inhibition Rate of STAT6 (%)): 78%; inhibition at 2 µM ([2]; U2OS, compound 2 μM, 8 hours, read-out: Inhibition Rate of NF-κB (%)): 74%
2 | CN1CCC(COc2ccc(NC(=O)c3cc(Cl)ccc3O)cc2F)CC1 [compound 51] | 83 (2 μM) % | 86 (2 μM) % | IC50 [1]: 9 nM; IC50 [2]: 17.9 nM
3 | O=C(Nc1ccc(OC2CCCCC2)c(F)c1)c1cc(Cl)ccc1O [compound 10] | 76 (2 μM) % | 45 (2 μM) % | –
4 | O=C(Nc1cc(C(F)(F)F)cc(C(F)(F)F)c1)c1cc(Cl)ccc1O [N-[3,5-Bis(trifluoromethyl)phenyl]-5-chloro-2-hydroxybenzamide, reference compound] | – | – | IC50 ([2]; U2OS): 385 nM
5 | O=C(Nc1ccc(N2CCCCC2)c(C(F)(F)F)c1)c1cc(Cl)ccc1O [compound 4] | 71 (2 μM) % | 28 (2 μM) % | –
6 | NC1CCC(Oc2ccc(NC(=O)c3cc(Cl)ccc3O)cc2F)CC1 (stereo not drawn) [compound 65] | 42 (2 μM) % | 20 (2 μM) % | –
7 | CN1CCN(c2ccc(NC(=O)c3cccc(Cl)c3O)cc2F)CC1.Cl [compound 60] | 26 (2 μM) % | 16 (2 μM) % | –
8 | CC1CNCCN1c1ccc(NC(=O)c2cc(Cl)ccc2O)cc1F.Cl (stereo not drawn) [compound 88] | 90 (2 μM) % | 90 (2 μM) % | IC50 [1]: 25.5 nM; IC50 [2]: 21.9 nM
9 | Cc1cc(NC(=O)c2cc(Cl)ccc2O)ccc1N1CCCCC1 [compound 9] | 53 (2 μM) % | – | –
10 | CC1CN(c2ccc(NC(=O)c3cc(Cl)ccc3O)cc2F)C(C)CN1.Cl.Cl (stereo not drawn) [compound 85] | 72 (2 μM) % | 79 (2 μM) % | –
11 | Cc1cc(NC(=O)c2cc(Cl)ccc2O)ccc1N1CCNCC1 [compound 23] | 24 (2 μM) % | 11 (2 μM) % | –
12 | O=C(Nc1ccc(N2CCCN(Cc3ccccc3)CC2)c(F)c1)c1cc(Cl)ccc1O [compound 52] | 55 (2 μM) % | 27 (2 μM) % | –
13 | CN1CCCN(c2ccc(NC(=O)c3ccc(Cl)cc3O)cc2F)CC1 [compound 77] | 90 (2 μM) % | 89 (2 μM) % | IC50 [1]: 7.29 nM; IC50 [2]: 8.44 nM
14 | O=C(Nc1ccc(N2CCN(C(=O)CCN3CCCCC3)CC2)c(F)c1)c1cc(Cl)ccc1O [compound 35] | 26 (2 μM) % | 24 (2 μM) % | –
15 | O=C(Nc1ccc(N2CCCNCC2)c(F)c1)c1cc(Cl)ccc1O [compound 44] | 94 (2 μM) % | 94 (2 μM) % | IC50 [1]: 7.51 nM; IC50 [2]: 15.7 nM
16 | O=C(Nc1ccc(N2CCCCC2)c(F)c1)c1cc(Cl)ccc1O [compound 2] | 90 (2 μM) % | 77 (2 μM) % | IC50 [1]: 58.1 nM; IC50 [2]: 39.4 nM
17 | CN1CCN(c2ccc(NC(=O)c3cc(C(F)(F)F)ccc3O)cc2F)CC1.Cl [compound 62] | 96 (2 μM) % | 89 (2 μM) % | –
18 | O=C(Nc1ccc(N2CCSCC2)c(F)c1)c1cc(Cl)ccc1O [compound 26] | 95 (2 μM) % | 68 (2 μM) % | –
19 | CC1CCC(C)N1c1ccc(NC(=O)c2cc(Cl)ccc2O)cc1F (stereo not drawn) [compound 84] | 83 (2 μM) % | 61 (2 μM) % | –
20 | CC(=O)N1CCN(c2ccc(NC(=O)c3cc(Cl)ccc3O)cc2F)CC1 [compound 11] | 40 (2 μM) % | 22 (2 μM) % | –
21 | CN1CCCN(c2ccc(NC(=O)c3cc(Cl)ccc3O)cc2F)CC1 [compound 34] | 94 (2 μM) % | 95 (2 μM) % | IC50 [1]: 3.22 nM; IC50 [2]: 7.04 nM
22 | CC1CCC(C)N1c1ccc(NC(=O)c2cc(Cl)ccc2O)cc1F.Cl (stereo not drawn) [compound 83] | 80 (2 μM) % | 59 (2 μM) % | –
23 | CN1CCC(Oc2ccc(NC(=O)c3cc(Cl)ccc3O)cc2F)C1 (stereo not drawn) [compound 38] | 77 (2 μM) % | 64 (2 μM) % | –
24 | Cl.NC1CCN(c2ccc(NC(=O)c3cc(Br)ccc3O)cc2F)CC1 [compound 67] | 94 (2 μM) % | 93 (2 μM) % | IC50 [1]: 5.32 nM; IC50 [2]: 16 nM
25 | Cl.O=C(Nc1ccc(N2CCC(N3CCCC3)CC2)c(F)c1)c1cc(Cl)ccc1O [compound 15] | 59 (2 μM) % | 53 (2 μM) % | –
26 | CN1CCN(c2ccc(NC(=O)c3ccccc3O)cc2F)CC1.Cl [compound 30] | 19 (2 μM) % | – | –
27 | CC1CCCN1c1ccc(NC(=O)c2cc(Cl)ccc2O)cc1F (stereo not drawn) [compound 82] | 38 (2 μM) % | – | –
28 | Cl.O=C(Nc1ccc(OC2CCCNC2)c(F)c1)c1cc(Cl)ccc1O (stereo not drawn) [compound 56] | 19 (2 μM) % | – | –
29 | CC1CN(c2ccc(NC(=O)c3cc(Cl)ccc3O)cc2F)CCN1.Cl (stereo not drawn) [compound 73] | 20 (2 μM) % | – | –
